According to doi:10.1101/2025.02.17.638454, “Synergistic RAS-MAPK and AKT Activation in MYC-Driven Tumors via Adjacent PVT1 Rearrangements” (bioRxiv, 2025):
No end group written: not given here.

Legend:
KRAS dimerization = assay: Acceptor photobleaching FRET of CFP-KRAS/YFP-KRAS in D458; format: cell-based; conditions: shRNA1.PVT1ts D458 with doxycycline-induced HNB; n=10, one-way ANOVA
Procedure: pcDNA3.1 CFP-KRAS (#112717) and pcDNA3.1 YFP-KRAS (#112718) were purchased from Addgene. The plasmids were co-transfected into D458 cells in a 35 mm cell culture dish with glass bottom. The cells were imaged live 48 hours after transfection on the Nikon Super Resolution Confocal Microscope. CFP was excited using 405–445nm laser and YFP was excited using the 514 nm laser. YFP was photobleached at 80% power for 1 minute and the CFP and YFP were imaged after photobleaching using the respective laser and filters. The images were analyzed in Fiji, ImageJ. […]
(§1) bioRxiv preprint doi: https://doi.org/10.1101/2025.02.17.638454; this version posted February 22, 2025. The copyright holder for this preprint (which was not certified by peer review) is the author/funder, who has granted bioRxiv a license to display the preprint in perpetuity. It is made available under a CC-BY 4.0 International license .
Supplementary Figure 22: HNB regulates KRAS dimerization (A) Schematic representation of KRAS dimerization using acceptor photobleaching FRET assay. (B) Schematic representation of KRAS dimerization on knocking down HNB using shRNA1-PVT1ts. (C) Representative images showing signals for CFP-KRAS and YFP-KRAS. […]
Images were taken at 60X oil; the scale bar is 10µm. […] (p-value calculated by one-way ANOVA, n=10). […] (p-value calculated by one-way ANOVA, n=10). […]

[1] = system: HALLMARK_MTORC1_SIGNALING; assay: GSEA MTORC1 signaling, SK-PN-DW; format: cell-based, human; conditions: si.CircPVT1 vs si.Ctrl, n=3, Padj = 0.010
Description: (§2) RNAseq processing: Raw reads were mapped to the hg19 human reference genome using the STAR aligner (v.2.5.0a) 66. PCR-duplicated reads and low mapping quality reads (MQ score below 20) were removed using Picard tools and SAMtools, respectively. Aligned reads were counted using htseq-count (v.0.6.1p1) 69 and normalized according to size factors method from DESeq2 70. We used fold change ≥2 and FDR <0.05 as the determination of differentially expressed genes (DEG). Statistical analysis and plots were performed inside R environment version 3.1.0. upload files) […]
as §1, with “license . […]” for “license .”
(§3) Supplementary Figure 11: Gene set enrichment analysis scores (GSEA) analysis of genes involved in MTORC 1 signaling in COLO320DM (A) and SK-PN-DW (B) treated with si.CircPVT 1. si.Ctrl was used as control. n=3, for each treatment condition .
(§4) (also on this page, place not known: SK-PN-DWB MTORC1 si.CircPVT1. condition. Enrichment Score Enrichment Score .CC-BY licenseavailable preprintthis https://doi.org/10.1101/2025.02.17.638454doi:) […]

HALLMARK_MYC_TARGETS = assay: GSEA MYC targets, COLO320DM; format: cell-based, human; conditions: si.CircPVT1 vs si.Ctrl
Description: as §2, with “(DEG).” for “(DEG). Statistical analysis and plots were performed inside R environment version 3.1.0. upload files)”
Supplementary Figure 9: Gene set enrichment analysis scores (GSEA) analysis for MYC targets genes in COLODM320 (A,B) and SK-PN-DW (C,D) treated with si.CircPVT 1. si.Ctrl was used as control . n=3, for each treatment condition .
(also on this page, place not known: Enrichment Score Enrichment Score si.CircPVT1. control. condition. Enrichment Score Enrichment Score .CC-BY licenseavailable preprintthis https://doi.org/10.1101/2025.02.17.638454doi:) […]

[2] = system: HALLMARK_MTORC1_SIGNALING; assay: GSEA MTORC1 signaling, COLO320DM; format: cell-based, human; conditions: si.CircPVT1 vs si.Ctrl, n=3, Padj = 0.0188
Description: as §2
as §1, with “license . […]” for “license .”
as §3, §4

MYC targets genes = assay: GSEA MYC targets, D458; format: cell-based, human; conditions: D458, si.CircPVT1 vs si.Ctrl, n=3
Description: RNAseq processing: Raw reads were mapped to the hg19 human reference genome using the STAR aligner (v.2.5.0a) 66. PCR-duplicated reads and low mapping quality reads (MQ score below 20) were removed using Picard tools and SAMtools, respectively. Aligned reads were counted using htseq-count (v.0.6.1p1) 69 and normalized according to size factors method from DESeq2 70. We used fold change ≥2 and FDR <0.05 as the determination of differentially expressed genes (DEG). Statistical analysis and plots were performed inside R environment version 3.1.0. upload files)

SK-PN-DW cells = assay: Proliferation assay SK-PN-DW; format: cell-based, human; conditions: si.CircPVT1 vs si.Ctrl, n=3, two-way ANOVA, P<0.0001
Description: Cancer cell lines: COLO-320DM, SK-PN-DW, U2OS, BxPC-3, DU145, SKBR-3 and, NCI-H1792 were obtained from American Type Culture Collection (Rockville, MD) and grown in their required growth medium per the American Type Culture Collection description. D458 and MB002 were obtained from Dr. Michael Taylor’s lab at SickKids hospital, Toronto. Cell line identity for the master stocks were verified by STR genotyping (IDEXX BioResearch)

Row | Substance | CFP (donor) fluorescence after photobleaching of YFP (KRAS dimerization) | NES, HALLMARK_MTORC1_SIGNALING [1] | NES, HALLMARK_MYC_TARGETS_V1 (HALLMARK_MYC_TARGETS; n=3, Padj = 0.009) | NES, HALLMARK_MYC_TARGETS_V2 (HALLMARK_MYC_TARGETS; n=3, Padj = 0.017) | NES, HALLMARK_MTORC1_SIGNALING [2] | MYC targets (GSEA) (MYC targets genes) | cellular proliferation (SK-PN-DW cells)
1 | MKTQLGAVKGFLHV [HNB] | mitigated the augmented CFP fluorescence | – | – | – | – | – | –
2 | si.CircPVT1: siRNA targeting the junction sequence of CircPVT1, 5’-UGGGCUUGAGGCCUGAUCUUU-3’ (other strand not given here) | – | -1.859 | -1.990 | -1.733 | -1.506 | depletion of MYC targets | reduced cellular proliferation
